These results are taken from PMC4792735 (Clinical pharmacokinetics, 2016).

Values joined by “and” are separate entries in the source; they are usually repeats but may differ in a detail not shown here. Equal entries are not always repeated. Where two headings read alike, the source gives them in different places. Bounds are passed on as bounds.

The conditions of data set [1]: metformin 850 mg oral alone.
The conditions of data set [2]: metformin alone; OGTT 75 g 2 hours after dosing; p>0.1 vs pre-metformin.
The next data set is described as follows: clinical. As to conditions: human, po, 850 mg.
Another data set has as its target T1, human MATE1 (Homo sapiens, UniProt Q96FL8).
T1 sequence (Q96FL8 1-570): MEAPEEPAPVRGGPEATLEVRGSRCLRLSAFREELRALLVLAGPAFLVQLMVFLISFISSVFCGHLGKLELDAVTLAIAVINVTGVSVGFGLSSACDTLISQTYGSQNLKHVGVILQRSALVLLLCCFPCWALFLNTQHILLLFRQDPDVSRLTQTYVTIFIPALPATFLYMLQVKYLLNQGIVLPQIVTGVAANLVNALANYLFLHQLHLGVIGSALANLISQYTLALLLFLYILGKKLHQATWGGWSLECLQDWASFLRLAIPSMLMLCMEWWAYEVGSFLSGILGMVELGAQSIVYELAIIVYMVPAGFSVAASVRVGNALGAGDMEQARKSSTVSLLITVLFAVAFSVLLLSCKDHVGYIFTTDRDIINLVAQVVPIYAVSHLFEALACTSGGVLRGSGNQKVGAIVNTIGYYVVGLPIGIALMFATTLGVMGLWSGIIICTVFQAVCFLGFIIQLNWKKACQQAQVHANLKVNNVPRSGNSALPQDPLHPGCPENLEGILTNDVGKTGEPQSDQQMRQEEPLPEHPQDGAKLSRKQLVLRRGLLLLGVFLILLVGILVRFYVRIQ
As to the kind of experiment: Inhibition of [14C]-metformin uptake in HEK-MATE1 cells. It is filed as cell-based. As to conditions: for inhibition at 10 x Cmax,u: human, probe [14C]-metformin 10 µM.

For data set [3], the target named is T2, human MATE2K (Homo sapiens, UniProt Q86VL8). As to the kind of experiment: in vitro. The note with it: probe [14C]-metformin 10 µM.
T2 sequence (Q86VL8 1-566 isoform Q86VL8-3): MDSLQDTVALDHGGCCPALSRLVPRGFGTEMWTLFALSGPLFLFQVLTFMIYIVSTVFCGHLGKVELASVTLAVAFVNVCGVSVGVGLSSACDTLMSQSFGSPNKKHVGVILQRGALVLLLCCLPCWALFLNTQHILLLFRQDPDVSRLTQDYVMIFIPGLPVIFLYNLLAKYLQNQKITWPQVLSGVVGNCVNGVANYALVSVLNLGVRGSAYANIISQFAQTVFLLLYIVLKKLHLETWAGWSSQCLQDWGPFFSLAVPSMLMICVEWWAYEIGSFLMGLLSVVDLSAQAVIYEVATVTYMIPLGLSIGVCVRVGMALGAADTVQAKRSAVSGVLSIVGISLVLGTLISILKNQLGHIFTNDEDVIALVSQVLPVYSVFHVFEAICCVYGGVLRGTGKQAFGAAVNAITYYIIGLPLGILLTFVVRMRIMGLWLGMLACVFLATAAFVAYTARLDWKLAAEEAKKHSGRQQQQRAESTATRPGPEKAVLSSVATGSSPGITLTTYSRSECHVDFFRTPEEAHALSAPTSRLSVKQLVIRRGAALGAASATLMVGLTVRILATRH
The next data set concerns the target T3, human OCT2 (Homo sapiens, UniProt O15244).
T3 sequence (O15244 1-555): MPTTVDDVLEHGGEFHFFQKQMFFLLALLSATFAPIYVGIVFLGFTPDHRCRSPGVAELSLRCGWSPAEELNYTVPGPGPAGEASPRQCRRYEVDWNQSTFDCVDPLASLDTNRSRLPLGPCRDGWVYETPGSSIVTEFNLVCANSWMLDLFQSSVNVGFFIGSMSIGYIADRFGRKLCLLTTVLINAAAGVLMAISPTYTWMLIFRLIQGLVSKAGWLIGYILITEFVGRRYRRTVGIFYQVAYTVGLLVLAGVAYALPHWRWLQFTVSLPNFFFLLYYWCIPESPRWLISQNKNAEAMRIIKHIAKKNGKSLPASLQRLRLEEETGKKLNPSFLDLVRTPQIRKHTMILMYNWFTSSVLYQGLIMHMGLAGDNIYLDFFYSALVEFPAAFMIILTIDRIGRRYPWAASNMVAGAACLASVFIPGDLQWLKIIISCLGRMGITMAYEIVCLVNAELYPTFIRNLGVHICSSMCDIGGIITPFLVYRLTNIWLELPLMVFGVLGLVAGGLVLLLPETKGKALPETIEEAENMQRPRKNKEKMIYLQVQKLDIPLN
Description: Inhibition of [14C]-metformin uptake in HEK-OCT2 cells. The note with it: for inhibition at 10 x Cmax,u: human, HEK293-Flp-In cells stably expressing human OCT2 (HEK-OCT2), probe [14C]-metformin 10 µM. It is filed as cell-based.

The next data set deals with T4, human PMAT (Homo sapiens, UniProt Q7RTT9).
T4 sequence (Q7RTT9 1-530): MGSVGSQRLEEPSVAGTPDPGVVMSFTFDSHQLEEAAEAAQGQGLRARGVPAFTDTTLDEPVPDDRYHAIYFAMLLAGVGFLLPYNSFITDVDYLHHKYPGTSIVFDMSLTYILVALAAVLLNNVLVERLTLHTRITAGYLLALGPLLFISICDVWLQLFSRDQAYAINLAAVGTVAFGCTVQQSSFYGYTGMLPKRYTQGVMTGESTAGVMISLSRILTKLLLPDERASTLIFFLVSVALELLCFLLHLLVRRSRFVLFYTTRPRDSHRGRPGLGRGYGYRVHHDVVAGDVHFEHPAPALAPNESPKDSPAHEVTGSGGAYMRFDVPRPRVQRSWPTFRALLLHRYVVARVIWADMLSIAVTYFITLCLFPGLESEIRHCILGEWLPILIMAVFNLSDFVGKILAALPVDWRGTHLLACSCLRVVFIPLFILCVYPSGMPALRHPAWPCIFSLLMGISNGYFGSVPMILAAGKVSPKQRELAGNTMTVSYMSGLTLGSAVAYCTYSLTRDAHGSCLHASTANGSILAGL
As to the kind of experiment: Inhibition of [14C]-metformin uptake in MDCK-PMAT cells. It is filed as cell-based.

Data set [4] concerns the target T5, human OCT1 (Homo sapiens, UniProt O15245).
T5 sequence (O15245 1-554): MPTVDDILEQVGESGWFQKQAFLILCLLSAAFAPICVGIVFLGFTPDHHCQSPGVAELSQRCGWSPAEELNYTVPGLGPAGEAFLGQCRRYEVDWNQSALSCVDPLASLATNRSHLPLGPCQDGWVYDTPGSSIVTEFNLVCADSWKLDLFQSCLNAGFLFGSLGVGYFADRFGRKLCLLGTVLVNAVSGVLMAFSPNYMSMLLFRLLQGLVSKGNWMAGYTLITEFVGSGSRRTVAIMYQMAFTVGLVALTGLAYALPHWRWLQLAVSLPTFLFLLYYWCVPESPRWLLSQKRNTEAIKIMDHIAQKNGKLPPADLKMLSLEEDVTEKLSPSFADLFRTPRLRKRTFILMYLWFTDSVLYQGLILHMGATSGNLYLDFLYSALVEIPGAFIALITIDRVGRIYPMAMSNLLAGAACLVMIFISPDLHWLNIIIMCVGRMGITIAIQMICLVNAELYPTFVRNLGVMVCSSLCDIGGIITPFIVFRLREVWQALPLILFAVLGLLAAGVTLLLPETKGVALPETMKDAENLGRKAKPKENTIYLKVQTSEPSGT
Description: cell-based.

Data set [5] concerns the target T2, human MATE2K. Description: cell-based. As to conditions: IC50, [14C]-metformin 10 μM uptake, HEK-MATE2K.
The target in a further data set is T6, human OCT3 (Homo sapiens, UniProt O75751).
T6 sequence (O75751 1-556): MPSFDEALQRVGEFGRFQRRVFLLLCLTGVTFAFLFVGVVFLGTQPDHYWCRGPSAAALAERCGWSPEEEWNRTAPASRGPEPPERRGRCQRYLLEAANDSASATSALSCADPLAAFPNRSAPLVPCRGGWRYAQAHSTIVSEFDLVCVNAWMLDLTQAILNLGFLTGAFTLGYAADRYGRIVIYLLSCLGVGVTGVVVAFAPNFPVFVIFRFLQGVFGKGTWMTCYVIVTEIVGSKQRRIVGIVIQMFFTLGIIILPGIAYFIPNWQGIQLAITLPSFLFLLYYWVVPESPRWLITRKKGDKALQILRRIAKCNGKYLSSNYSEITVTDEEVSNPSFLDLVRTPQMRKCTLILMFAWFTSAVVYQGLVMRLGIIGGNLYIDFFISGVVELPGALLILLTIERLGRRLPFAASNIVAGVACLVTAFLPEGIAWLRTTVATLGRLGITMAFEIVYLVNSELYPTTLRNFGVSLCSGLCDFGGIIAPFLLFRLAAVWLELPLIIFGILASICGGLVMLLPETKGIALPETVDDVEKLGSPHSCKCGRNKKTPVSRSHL
As to the kind of experiment: Inhibition of [14C]-metformin uptake in HEK-OCT3 cells. In kind it is cell-based. As to conditions: for metformin uptake (remaining): OCT3-mediated, inhibitor at 10x Cmax,u.

Data set [6] addresses T5, human OCT1. The note with it: OCT1-mediated, inhibitor at 10x Cmax,u.
The format of data set [7] is in vivo, human.
The conditions of data set [8]: human plasma; cited from earlier work.

Regarding `CN(C)C(=N)N=C(N)N` [Metformin, metformin], in [1], the CL/F came out at 1360 ± 440 mL/min and the V/F was 577 ± 179 L. For the same molecule, the “Amount in urine0–24” value in data set [1] (11 subjects) stood at 437 ± 86 mg. The “glucose AUC after OGTT” value in data set [2] came to 3100 ± 121 mg·h/L. In addition, in “clinical” (plasma and urine), the CL renal is 736 ± 204 mL/min. Also, in the data set “clinical” (plasma), the AUC(0-inf) is 11400 ± 3300 ng·h/mL, the area under the curve AUC(0-t) amounted to 11000 ± 3100 ng·h/mL, the Cmax was determined as 1810 ± 600 ng/mL and the Tmax turned out to be 2.46 ± 0.66 h.

Consider `Nc1nc(NC2CC2)c2ncn([C@H]3C=C[C@@H](CO)C3)c2n1` [abacavir], for which the inhibition at 10 x Cmax,u against human MATE1 was ≥ 50%.

On to `CN/C(=N/CCSCc1nc[nH]c1C)NC#N` [cimetidine], for which the inhibition at 10 x Cmax,u at human MATE1 and on human MATE2K [3] was ≥ 50% in each case.

Consider `CC(C)/N=c1\cc2n(-c3ccc(Cl)cc3)c3ccccc3nc-2cc1Nc1ccc(Cl)cc1` [clofazimine], for which the inhibition at 10 x Cmax,u against human MATE1 is ≥ 50%.

On to `CC(=O)OCC(CCn1cnc2cnc(N)nc21)COC(C)=O` [famciclovir], for which, at human MATE2K [3], the inhibition at 10 x Cmax,u was ≥ 50%.

Regarding `COc1c(N2C[C@@H]3CCCN[C@@H]3C2)c(F)cc2c(=O)c(C(=O)O)cn(C3CC3)c12` [moxifloxacin], the IC50 is 5.12 µM on human MATE1; > 151 µM against human OCT2; > 151 µM on human PMAT; 47 µM on human OCT1 [4]; 1.19 µM on human MATE2K [5]; > 151 µM against human OCT3. Besides, the inhibition at 10 x Cmax,u against human MATE1 and against human MATE2K [3] was ≥ 50% each time.

For `C=CCN1CC[C@]23c4c5ccc(O)c4O[C@H]2C(=O)CC[C@@]3(O)[C@H]1C5` [naloxone], the inhibition at 10 x Cmax,u at human OCT2 is ≥ 50%.

For the molecule `CNC(=C[N+](=O)[O-])NCCSCc1csc(CN(C)C)n1` [nizatidine], the IC50 was 52.7 µM against human MATE1; > 115 µM against human OCT2; > 115 µM against human PMAT; > 115 µM on human OCT1 [4]; 7.8 µM and 7.81 µM on human MATE2K [5]; 41.1 µM against human OCT3. Besides, the inhibition at 10 x Cmax,u on human MATE2K [3] is ≥ 50%. Besides, the “metformin uptake (remaining)” value on human OCT3 and on human OCT1 [6] was > 50% throughout. In addition, the half-life in data set [7] (human, plasma, oral) was ~3 h. For the same molecule, the Cmax in data set [7] (human, plasma, po, 600 mg) was 4200 ng/mL and 12.7 µM. For the same molecule, the “calculated Cmax,u” value in data set [7] (nizatidine 600 mg oral, calculated with 35% protein binding) is 2.7 ± 0.2 μg/mL and 8.2 μM. Also, in [8], the protein binding is given as 35%.

Turning to `CCn1cc(C(=O)O)c(=O)c2cc(F)c(N3CCNCC3)cc21` [norfloxacin], the IC50 at human MATE1 is 19.9 µM; at human OCT2 it was > 160 µM; against human PMAT, > 160 µM; against human OCT1 [4] it was > 160 µM; at human MATE2K [5], 4.74 µM; against human OCT3 it was > 160 µM. In addition, the inhibition at 10 x Cmax,u against human MATE1 and on human MATE2K [3] was ≥ 50% in each case. In addition, the “metformin uptake (remaining)” value at human OCT3 and on human OCT1 [6] was > 50% in each case.

For the molecule `Cc1nccn1CC1CCc2c(c3ccccc3n2C)C1=O` (stereo not drawn) [ondansetron], the inhibition at 10 x Cmax,u on human MATE1 and against human MATE2K [3] was ≥ 50% in each case. For the same molecule, the IC50 on human PMAT, against human OCT1 [4] and against human OCT3 was > 1.32 µM in each case. For the same molecule, the “metformin uptake (remaining)” value at human OCT3 and at human OCT1 [6] was > 50% throughout.

For `CCN(CC)CCNC(=O)c1ccc(N)cc1` [procainamide], the inhibition at 10 x Cmax,u against human MATE2K [3] and at human OCT2 was ≥ 50% throughout.

As to `C=C[C@H]1C[N@@]2CC[C@H]1C[C@H]2[C@H](O)c1ccnc2ccc(OC)cc12` [quinine], the inhibition at 10 x Cmax,u on human MATE1, on human MATE2K [3] and on human OCT2 was ≥ 50% throughout.

For the molecule `CNC(=C[N+](=O)[O-])NCCSCc1ccc(CN(C)C)o1` [ranitidine], the inhibition at 10 x Cmax,u on human MATE1 and against human MATE2K [3] was ≥ 50% in each case. For the same molecule, the IC50 at human OCT2 was 15.7 µM; against human PMAT, > 214 µM; on human OCT1 [4] it was 26.8 µM; on human MATE2K [5], 4.63 µM; against human OCT3 it was 93.5 µM. Further, the “metformin uptake (remaining)” value on human OCT3 and at human OCT1 [6] was > 50% throughout.

Consider `COc1cc(Cc2cnc(N)nc2N)cc(OC)c1OC` [trimethoprim], for which the inhibition at 10 x Cmax,u on human MATE1 and against human MATE2K [3] was ≥ 50% each time.

The term CL/F denotes the apparent clearance, not corrected for the fraction that reaches the circulation. What is called AUC(0-inf) is the area under the concentration-time curve extrapolated to infinity. A low value points to less exposure. One may read the AUC(0-t) as the area under the concentration-time curve up to a stated or last time point. Read a high AUC(0-t) as high exposure. What is called Cmax is the maximum level reached in the sampled fluid or tissue. A word on the Tmax: it is the time from dosing to the highest level. For orientation: inhibition means the relative decrease from the control value, in per cent. Higher therefore signals strong suppression. Broadly, the IC50 is the concentration at which inhibition is half-maximal. By half-life is commonly meant how long it takes for the measured level to halve. A low value points to rapid decline.
